Measurements as given in BigSolDB 2.1.

O=C(O)c1c(O)cccc1O
solubility (mole fraction)
Details	278.15 K	283.15 K	288.15 K	293.15 K	298.15 K	303.15 K	308.15 K	313.15 K	318.15 K
in ethanol	0.221	0.234	0.245	0.258	0.273	0.286	0.294	0.306	0.318
in isopropanol	0.225	0.24	0.254	0.268	0.28	0.292	0.303	0.315	0.323
in methanol	0.2	0.214	0.227	0.247	0.261	0.276	0.284	0.3	0.314
in n-butanol	0.189	0.202	0.216	0.23	0.245	0.26	0.275	0.29	0.306
